In US20200392158A1, “INHIBITORS OF LEUCINE RICH REPEAT KINASE 2” (GLAXOSMITHKLINE INTELLECTUAL PROPERTY DEVELOPMENT LIMITED, priority 2017, published 2020):

What was measured:
[1] = target: T1, LRRK2 kinase in SH-SY5Y cells over-expressing recombinant full length LRRK2 (Homo sapiens, UniProt Q5S007); experiment: Recombinant cellular LRRK2 AlphaScreen assay (LRRK2 Ser935 phosphorylation); type: cell-based; conditions: 60 min
T1 construct: A BacMam virus expressing full length recombinant LRRK2 was purchased from Invitrogen; host or cells: SH-SY5Y human neuroblastoma cells transduced with BacMam LRRK2 virus
Excerpt: b. Recombinant Cellular LRRK2 AlphaScreen Assay
To determine the activity of compounds against LRRK2 kinase in cells, the observed LRRK2 kinase-dependent modulation of LRRK2 Ser 935 phosphorylation (Dzamko et al., 2010, Biochem. J. 430: 405-413) was utilized to develop a quantitative 384 well plate-based immunoassay of LRRK2 Ser935 phosphorylation in the human neuroblastoma cell line SH-SY5Y, engineered to over-express recombinant full length LRRK2 protein.
A BacMam virus expressing full length recombinant LRRK2 was purchased from Invitrogen and amplified by inoculation of SF-9 cells at MOI 0.3 for 4-5 days in Sf-900 III SFM medium supplemented with 3% fetal bovine serum. Infected cell cultures were then centrifuged at 2000 g for 20 minutes, viral supernatant titer determined by anti-gp64 plaque assay and stored at 4° C.
Affinity-purified anti-phospho LRRK2 Ser935 sheep polyclonal antibody (Dzamko et al., 2010, Biochem. J. 430: 405-413) was biotinylated by standard methods (PerkinElmer). Anti-LRRK2 rabbit polyclonal antibody was purchased from Novus Biologicals. AlphaScreen Protein A IgG Kit (including acceptor and donor beads) was purchased from Perkin Elmer.
SH-SY5Y cells were grown in DMEM/F12 medium with 10% dialysed fetal bovine serum and harvested by treatment with 0.5% trypsin-EDTA for 5 minutes at 37° C. followed by centrifugation at 1000 rpm for 4 minutes. The cell pellet was resuspended in Opti-MEM reduced serum media (Invitrogen) at 200,000 cells/ml and mixed with the BacMam LRRK2 virus at M01=50. 50 μl cell solutions were then dispensed to each well of a 384-well plate and incubated at 37° C., 5% CO2 for 24 hours.
Compounds were prepared at 10× final assay concentration as 11 point 1 in 4 serial I dilutions in Opti-MEM reduced serum medium (Invitrogen 31985070) containing 1% DMSO. On the day of assay, 5.5 μl of the compound solutions were transferred from the compound plate to the cell assay plate to achieve a top final assay concentration of 10 uM. DMSO (0.1% final assay concentration) was added to column 6 and 2-(benzyloxy)-5-methyl-4-(1-methyl-1H-pyrazol-4-yl)-N-(pyridin-3-yl)benzamide (2 μM final assay concentration) was added to column 18 to serve as 0% and 100% inhibition controls, respectively.
Cells were incubated at 37° C., 5% CO2 for 60 minutes. The medium was then removed and cells lysed by addition of 20 μl of cell lysis buffer (Cell Signaling Technology) and incubation at 4° C. for 20 minutes. 10 μl of antibody/acceptor bead mix [(1/1000 biotinylated-pS935 LRRK2 antibody, 1/1000 total-LRRK2 antibody, 1/100 Acceptor beads in AlphaScreen detection buffer (25 mM Hepes (pH 7.4), 0.5% Triton X-100, 1 mg/ml Dextran 500 and 0.1% BSA)] was then added to each well and plates incubated for 2 hours at ambient temperature in the dark. 10 μl of donor beads solution (1/33.3 donor beads in AlphaScreen detection buffer) was then added to each well. Following incubation for a further 2 hours at ambient temperature in the dark, plates were read on an EnVision™ plate reader at emission 520-620 nm with excitation 680 nm. Dose response curve data was based on a sigmoidal dose-response model.

[2] = target: T2, full length G2019 human LRRK2 (Homo sapiens, UniProt Q5S007, R50H); experiment: Full length G2019 human LRRK2 inhibition mass spectrometry assay; type: biochemical; conditions: LRRKtide to phospho-LRRKtide conversion, RapidFire MS, 2 mM ATP
T2 construct: made in house; host or cells: HEK293 6E cells transduced with BacMam virus (virus generated in Sf9 cells)
Summary of the method: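 Purified full-length Flag-tagged G2019 LRRK2, ~25 nM, with 25 μM LRRKtide and 2 mM ATP in 50 mM Hepes pH 7.2, 10 mM MgCl2, 150 mM NaCl, 1 h at room temperature. Quenched with formic acid; phospho- and unphosphorylated LRRKtide measured by RapidFire MS. pIC50 from 4-parameter fit of % conversion, 11 points, top 100 μM.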

T1 sequence (Q5S007 whole entry): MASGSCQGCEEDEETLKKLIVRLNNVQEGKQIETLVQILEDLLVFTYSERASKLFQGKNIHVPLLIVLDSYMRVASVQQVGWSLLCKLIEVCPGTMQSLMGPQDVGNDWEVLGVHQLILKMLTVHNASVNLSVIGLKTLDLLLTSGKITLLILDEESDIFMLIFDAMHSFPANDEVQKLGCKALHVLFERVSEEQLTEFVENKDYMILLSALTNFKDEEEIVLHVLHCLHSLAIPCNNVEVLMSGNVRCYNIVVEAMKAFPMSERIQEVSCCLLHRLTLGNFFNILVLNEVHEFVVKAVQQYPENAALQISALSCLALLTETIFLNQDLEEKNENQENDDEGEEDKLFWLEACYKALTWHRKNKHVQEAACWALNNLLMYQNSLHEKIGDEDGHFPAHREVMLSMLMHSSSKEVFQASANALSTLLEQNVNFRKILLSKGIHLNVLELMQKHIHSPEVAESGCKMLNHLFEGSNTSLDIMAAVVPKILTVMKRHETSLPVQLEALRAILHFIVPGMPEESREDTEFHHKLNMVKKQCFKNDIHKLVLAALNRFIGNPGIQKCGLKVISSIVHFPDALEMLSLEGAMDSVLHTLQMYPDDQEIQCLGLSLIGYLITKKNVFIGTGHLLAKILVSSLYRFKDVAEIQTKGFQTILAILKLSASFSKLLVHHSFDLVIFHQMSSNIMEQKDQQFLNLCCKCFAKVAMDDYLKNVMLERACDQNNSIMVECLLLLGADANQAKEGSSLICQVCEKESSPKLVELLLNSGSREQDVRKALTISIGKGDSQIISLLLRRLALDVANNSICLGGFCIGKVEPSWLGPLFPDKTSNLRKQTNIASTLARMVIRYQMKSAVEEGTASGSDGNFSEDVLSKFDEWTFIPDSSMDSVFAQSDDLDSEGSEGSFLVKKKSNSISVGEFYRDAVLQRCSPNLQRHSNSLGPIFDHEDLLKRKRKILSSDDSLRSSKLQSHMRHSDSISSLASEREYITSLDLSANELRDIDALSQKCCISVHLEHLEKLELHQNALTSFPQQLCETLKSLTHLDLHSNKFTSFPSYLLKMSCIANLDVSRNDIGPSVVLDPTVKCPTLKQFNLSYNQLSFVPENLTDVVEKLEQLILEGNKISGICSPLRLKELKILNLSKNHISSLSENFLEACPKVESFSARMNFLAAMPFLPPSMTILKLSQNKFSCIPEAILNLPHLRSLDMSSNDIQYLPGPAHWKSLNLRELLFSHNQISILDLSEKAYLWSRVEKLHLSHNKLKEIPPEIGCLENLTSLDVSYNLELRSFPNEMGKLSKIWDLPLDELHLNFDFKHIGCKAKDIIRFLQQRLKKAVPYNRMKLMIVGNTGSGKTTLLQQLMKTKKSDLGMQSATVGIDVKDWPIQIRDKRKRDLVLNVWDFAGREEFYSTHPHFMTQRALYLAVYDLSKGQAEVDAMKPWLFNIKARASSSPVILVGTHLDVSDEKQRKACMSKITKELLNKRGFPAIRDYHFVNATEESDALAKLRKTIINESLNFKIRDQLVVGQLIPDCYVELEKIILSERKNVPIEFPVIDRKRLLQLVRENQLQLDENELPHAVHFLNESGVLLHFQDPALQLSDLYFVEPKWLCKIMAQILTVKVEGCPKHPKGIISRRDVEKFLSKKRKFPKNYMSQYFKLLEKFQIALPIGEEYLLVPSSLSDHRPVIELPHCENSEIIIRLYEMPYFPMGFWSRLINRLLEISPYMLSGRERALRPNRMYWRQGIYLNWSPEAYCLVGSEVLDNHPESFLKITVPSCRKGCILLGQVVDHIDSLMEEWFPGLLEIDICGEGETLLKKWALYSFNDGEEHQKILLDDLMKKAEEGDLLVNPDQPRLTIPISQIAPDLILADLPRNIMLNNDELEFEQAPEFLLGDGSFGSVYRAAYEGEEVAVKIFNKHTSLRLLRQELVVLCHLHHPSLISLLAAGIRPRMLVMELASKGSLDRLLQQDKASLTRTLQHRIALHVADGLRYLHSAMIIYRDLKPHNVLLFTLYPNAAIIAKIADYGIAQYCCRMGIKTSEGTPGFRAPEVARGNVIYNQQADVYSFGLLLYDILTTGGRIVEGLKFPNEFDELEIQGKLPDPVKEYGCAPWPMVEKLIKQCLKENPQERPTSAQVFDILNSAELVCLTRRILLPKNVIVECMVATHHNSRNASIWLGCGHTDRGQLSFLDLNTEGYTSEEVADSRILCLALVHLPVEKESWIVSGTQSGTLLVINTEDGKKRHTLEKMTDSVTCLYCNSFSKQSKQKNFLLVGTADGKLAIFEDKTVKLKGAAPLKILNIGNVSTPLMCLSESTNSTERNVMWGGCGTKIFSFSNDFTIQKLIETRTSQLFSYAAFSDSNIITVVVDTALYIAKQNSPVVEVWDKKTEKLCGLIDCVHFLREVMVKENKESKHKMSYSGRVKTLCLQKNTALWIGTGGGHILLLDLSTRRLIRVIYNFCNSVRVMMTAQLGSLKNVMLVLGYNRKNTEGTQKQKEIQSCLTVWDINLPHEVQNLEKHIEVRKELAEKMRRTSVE
T2 sequence (Q5S007 with tags, fused parts or gaps R50H): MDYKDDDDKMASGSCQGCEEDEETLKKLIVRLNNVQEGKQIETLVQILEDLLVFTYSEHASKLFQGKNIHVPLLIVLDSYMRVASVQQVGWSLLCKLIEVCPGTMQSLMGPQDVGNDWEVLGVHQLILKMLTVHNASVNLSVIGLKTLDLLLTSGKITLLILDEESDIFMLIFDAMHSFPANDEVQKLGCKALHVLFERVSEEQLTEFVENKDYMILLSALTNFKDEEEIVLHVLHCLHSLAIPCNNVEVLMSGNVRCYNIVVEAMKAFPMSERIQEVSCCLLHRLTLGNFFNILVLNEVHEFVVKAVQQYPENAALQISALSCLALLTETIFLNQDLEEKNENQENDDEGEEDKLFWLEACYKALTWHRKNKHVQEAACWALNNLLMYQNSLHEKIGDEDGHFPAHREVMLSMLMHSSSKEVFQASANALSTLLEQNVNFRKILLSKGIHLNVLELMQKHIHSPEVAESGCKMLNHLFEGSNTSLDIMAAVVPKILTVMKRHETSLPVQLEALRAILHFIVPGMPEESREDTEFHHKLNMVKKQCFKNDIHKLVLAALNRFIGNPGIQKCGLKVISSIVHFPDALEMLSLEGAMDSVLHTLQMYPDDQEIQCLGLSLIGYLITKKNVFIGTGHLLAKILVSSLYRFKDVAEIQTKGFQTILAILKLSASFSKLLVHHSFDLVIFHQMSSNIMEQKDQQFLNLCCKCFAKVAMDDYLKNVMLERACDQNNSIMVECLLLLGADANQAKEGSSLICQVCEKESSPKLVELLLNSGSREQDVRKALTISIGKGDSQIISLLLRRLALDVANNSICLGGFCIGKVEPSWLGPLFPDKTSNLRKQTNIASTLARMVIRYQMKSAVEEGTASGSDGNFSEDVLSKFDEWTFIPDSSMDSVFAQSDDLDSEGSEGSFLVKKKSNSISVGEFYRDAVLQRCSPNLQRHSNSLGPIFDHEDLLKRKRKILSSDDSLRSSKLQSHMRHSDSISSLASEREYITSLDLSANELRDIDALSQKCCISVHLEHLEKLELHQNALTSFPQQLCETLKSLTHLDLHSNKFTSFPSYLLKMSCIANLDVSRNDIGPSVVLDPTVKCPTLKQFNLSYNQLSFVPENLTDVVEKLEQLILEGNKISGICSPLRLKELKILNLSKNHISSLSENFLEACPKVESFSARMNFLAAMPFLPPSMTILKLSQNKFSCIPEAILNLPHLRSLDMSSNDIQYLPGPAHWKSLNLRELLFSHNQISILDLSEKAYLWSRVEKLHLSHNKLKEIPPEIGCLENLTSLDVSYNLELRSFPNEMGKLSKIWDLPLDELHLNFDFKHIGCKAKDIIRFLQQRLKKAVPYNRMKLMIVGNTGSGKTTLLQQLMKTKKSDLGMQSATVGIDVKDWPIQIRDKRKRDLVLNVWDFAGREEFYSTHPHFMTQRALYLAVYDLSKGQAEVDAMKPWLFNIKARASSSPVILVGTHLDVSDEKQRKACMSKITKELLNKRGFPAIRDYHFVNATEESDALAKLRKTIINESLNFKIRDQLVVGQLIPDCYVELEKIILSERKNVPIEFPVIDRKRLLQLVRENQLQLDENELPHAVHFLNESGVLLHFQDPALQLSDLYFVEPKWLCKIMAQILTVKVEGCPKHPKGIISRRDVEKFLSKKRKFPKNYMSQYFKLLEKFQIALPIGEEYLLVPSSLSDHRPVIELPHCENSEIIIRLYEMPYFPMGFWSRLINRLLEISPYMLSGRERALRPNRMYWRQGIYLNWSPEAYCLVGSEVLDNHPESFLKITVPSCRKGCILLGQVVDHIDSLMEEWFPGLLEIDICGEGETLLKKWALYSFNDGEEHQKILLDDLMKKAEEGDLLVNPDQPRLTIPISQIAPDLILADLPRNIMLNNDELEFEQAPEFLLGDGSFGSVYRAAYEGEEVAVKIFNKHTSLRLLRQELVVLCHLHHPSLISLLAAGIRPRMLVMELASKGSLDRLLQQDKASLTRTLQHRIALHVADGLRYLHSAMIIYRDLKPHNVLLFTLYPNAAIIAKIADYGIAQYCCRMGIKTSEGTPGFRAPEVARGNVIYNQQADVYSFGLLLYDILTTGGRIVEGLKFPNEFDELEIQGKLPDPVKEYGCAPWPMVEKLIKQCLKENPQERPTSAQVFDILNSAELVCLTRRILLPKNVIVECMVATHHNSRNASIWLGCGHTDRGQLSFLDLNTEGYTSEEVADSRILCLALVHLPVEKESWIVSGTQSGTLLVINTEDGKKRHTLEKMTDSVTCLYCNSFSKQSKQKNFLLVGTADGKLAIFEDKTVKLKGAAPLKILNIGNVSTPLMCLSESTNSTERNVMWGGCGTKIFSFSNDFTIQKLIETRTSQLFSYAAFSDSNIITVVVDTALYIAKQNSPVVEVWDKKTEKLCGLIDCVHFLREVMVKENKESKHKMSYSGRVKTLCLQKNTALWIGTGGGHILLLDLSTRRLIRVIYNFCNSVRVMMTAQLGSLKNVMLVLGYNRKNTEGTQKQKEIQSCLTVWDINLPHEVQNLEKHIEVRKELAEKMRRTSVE

| Structure (SMILES) | IC50 [1] | IC50 [2] |
| --- | --- | --- |
| Cc1c2c(nn1C1CC3(COC3)C1)OCCC(C)Nc1nc(ncc1Cl)N2 (racemic) | > 10000 nM |  |
| Cc1c2c(nn1C1CCCOC1)OCCCNc1nc(ncc1Cl)N2 (single isomer, unassigned) [E10, 14-Chloro-4-methyl-5-(oxan-3-yl)-8-oxa-2,5,6,12,16,17-hexaaza tricyclo-[11.3.1.0^3,7]heptadeca-1(16),3,6,13(17),14-pentaene] | ≤ 100 nM |  |
| Cc1c2c(nn1C1CCOCC1)OCC(F)CNc1nc(ncc1Cl)N2 (single isomer, unassigned) [E17, 14-Chloro-10-fluoro-4-methyl-5-(oxan-4-yl)-8-oxa-2,5,6,12,16,17-hexaazatricyclo [11.3.1.0^3,7]heptadeca-1(16),3,6,13(17),14-pentaene] | ≤ 100 nM |  |
| Cc1c2c(nn1C1CCOCC1F)OCCC(C)Nc1nc(ncc1Cl)N2 (single isomer, unassigned) [E24, 14-chloro-5-(3-fluorooxan-4-yl)-4,11-dimethyl-8-oxa-2,5,6,12,16,17-hexaazatricyclo [11.3.1.0^3,7]heptadeca-1(17),3,6,13,15-pentaene] | ≤ 100 nM |  |
| CCOC(=O)C(C)(C)n1nc2c(c1C)Nc1ncc(Cl)c(n1)NC(C)CCO2 (single isomer, unassigned) [E38, Ethyl 2-{14-chloro-4,11-dimethyl-8-oxa-2,5,6,12,16,17-hexaazatricyclo [11.3.1.0^3,7]heptadeca-1(16),3,6,13(17),14-pentaen-5-yl}-2-methylpropanoate] | ≤ 100 nM |  |
| Cc1c2c(nn1C(C)(C)C(N)=O)OCCC(C)Nc1nc(ncc1Cl)N2 (single isomer, unassigned) [E42, 2-{14-chloro-4,11-dimethyl-8-oxa-2,5,6,12,16,17-hexaazatricyclo [11.3.1.0^3,7]heptadeca-1(16),3,6,13(17),14-pentaen-5-yl}-2-methylpropanamide] | ≤ 100 nM |  |
| Cc1c2c(nn1C(C)(C)C#N)OCCC(C)Nc1nc(ncc1Cl)N2 (single isomer, unassigned) [E44, 2-{14-chloro-4,11-dimethyl-8-oxa-2,5,6,12,16,17-hexaazatricyclo [11.3.1.0^3,7]heptadeca-1(16),3,6,13(17),14-pentaen-5-yl}-2-methylpropanenitrile] | ≤ 100 nM |  |
| Cc1c2c(nn1C1CCC(N3C[C@@H]4C[C@H]3CO4)CC1)OCCCNc1nc(ncc1Cl)N2 (single isomer, unassigned) [E50] | ≤ 100 nM |  |
| COCCN1CCC(n2nc3c(c2C)Nc2ncc(Cl)c(n2)NCCCO3)C(F)C1 (single isomer, unassigned) [E59, trans-14-chloro-5-[3-fluoro-1-(2-methoxyethyl)piperidin-4-yl]-4-methyl-8-oxa-2,5,6,12,16,17-hexaazatricyclo[11.3.1.0^3,7]heptadeca 1(16),3,6,13(17),14-pentaene] | ≤ 100 nM |  |
| COc1cnc2nc1N[C@H](C)CCOc1nn(C3CCOCC3)c(C)c1N2 [E294, (11R)-14-Methoxy-4,11-dimethyl-5-(oxan-4-yl)-8-oxa-2,5,6,12,16, 17-hexaazatricyclo[11.3.1.0^3,7]heptadeca-1(16),3,6,13(17),14-pentaene] |  | ≤ 10000 nM |
| Cc1c2c(nn1C1CCOCC1)OCC[C@@H](C)Nc1nc(ncc1F)N2 [E295, (11R)-14-Fluoro-4,11-dimethyl-5-(oxan-4-yl)-8-oxa-2,5,6,12,16,17-hexaazatricyclo[11.3.1.0^3,7]heptadeca-1(16),3,6,13(17),14-pentaene] |  | ≤ 100 nM |
| Cc1cnc2nc1N[C@H](C)CCOc1nn(C3CCOCC3)c(C)c1N2 [E296, (11R)-14-Methyl-4,11-dimethyl-5-(oxan-4-yl)-8-oxa-2,5,6,12,16,17-hexaazatricyclo[11.3.1.0^3,7]heptadeca-1(16),3,6,13(17),14-pentaene] |  | ≤ 10000 nM |
| Cc1c2c(nn1C1CCOCC1)OCC[C@@H](C(C)C)Nc1nc(ncc1Cl)N2 [E298, (11S)-14-Chloro-4-methyl-5-(oxan-4-yl)-11-(propan-2-yl)-8-oxa-2,5,6,12,16,17-hexaazatricyclo[11.3.1.0^3,7]heptadeca-1(16),3,6,13(17),14-pentaene] |  | ≤ 100 nM |
| Cc1c2c(nn1C1CCOCC1)OCCC(C)(C)Nc1nc(ncc1Cl)N2 [E299, 14-Chloro-4,11,11-trimethyl-5-(oxan-4-yl)-8-oxa-2,5,6,12,16,17-hexaazatricyclo[11.3.1.0^3,7]heptadeca-1(16),3,6,13(17),14-pentaene] |  | ≤ 10000 nM |
| Cc1c2c(nn1C(C)(C)C#N)OCC[C@@H](C(C)C)Nc1nc(ncc1Cl)N2 [E323, 2-[(11S)-14-Chloro-4-methyl-11-(propan-2-yl)-8-oxa-2,5,6,12, 16,17-hexaazatricyclo[11.3.1.0^3,7]heptadeca-1(16),3,6,13(17),14-pentaen-5-yl]-2-methylpropanenitrile] |  | ≤ 10000 nM |
| CCN1CCCOc2nn(C3CCOCC3)c(C)c2Nc2ncc(Cl)c1n2 [E360, 14-Chloro-12-ethyl-4-methyl-5-(oxan-4-yl)-8-oxa-2,5,6,12,16,17-hexaazatricyclo[11.3.1.0^3,7]heptadeca-1(16),3,6,13(17),14-pentaene] |  | ≤ 10000 nM |
| Cc1c2c(nn1C1CN(C3CCOCC3)C1)OC[C@@H](F)[C@@H](C)Nc1nc(ncc1Cl)N2 [E388, (10S, 11R)-14-Chloro-10-fluoro-4,11-dimethyl-5-[1-(oxan-4-yl)azetidin-3-yl]-8-oxa-2,5,6,12,16,17-hexaazatricyclo [11.3.1.0^3,7]heptadeca-1(16),3,6,13(17),14-pentaene] |  | ≤ 100 nM |
| Cc1c2c(nn1C1CN(C3CCCOC3)C1)OC[C@@H](F)[C@@H](C)Nc1nc(ncc1Cl)N2 (stereo partly drawn) [E390, (10S, 11R)-14-Chloro-10-fluoro-4,11-dimethyl-5-[1-(oxan-3-yl)azetidin-3-yl]-8-oxa-2,5,6,12,16,17-hexaazatricyclo [11.3.1.0^3,7]heptadeca-1(16)53,6,13(17),14-pentaene] |  | ≤ 100 nM |
| COC(C)c1c2c(nn1C1CCOCC1)OCC[C@@H](C)Nc1nc(ncc1Cl)N2 (stereo partly drawn) [E409, (11R)-14-Chloro-4-(1-methoxyethyl)-11-methyl-5-(oxan-4-yl)-8-oxa-2,5,6,12,16,17-hexaazatricyclo[11.3.1.0^3,7]heptadeca-1(17),3,6,13,15-pentaene] |  | ≤ 10000 nM |
| Cc1c2c(nn1C1(C(F)(F)F)CCOCC1)OCCCNc1nc(ncc1Cl)N2 [E418, 14-Chloro-4-methyl-5-[4-(trifluoromethyl)oxan-4-yl]-8-oxa-2,5,6,12,16,17-hexaazatricyclo[11.3.1.0^3,7]heptadeca-1(16),3,6,13(17),14-pentaene] |  | ≤ 100 nM |
| Cc1c2c(nn1C1(C(F)(F)F)CCOCC1)OCC[C@@H](C)Nc1nc(ncc1Cl)N2 [E419, (11R)-14-Chloro-4,11-dimethyl-5-[4-(trifluoromethyl)oxan-4-yl]-8-oxa-2,5,6,12,16,17-hexaazatricyclo[11.3.1.0^3,7]heptadeca-1(16),3,6,13(17),14-pentaene] |  | ≤ 100 nM |
| FC(F)(F)c1c2c(nn1C1CCOCC1)OCCCNc1nc(ncc1Cl)N2 [E424, 14-Chloro-5-(oxan-4-yl)-4-(trifluoromethyl)-8-oxa-2,5,6,12,16,17-hexaazatricyclo[11.3.1.0^3,7]heptadeca-1(16),3,6,13(17),14-pentaene] |  | ≤ 100 nM |
| N#Cc1cnc2nc1NCCCOc1n[nH]c(Cl)c1N2 [E426, 4-Chloro-8-oxa-2,5,6,12,16,17-hexaazatricyclo[11.3.1.0^3,7]heptadeca-1(16),3,6,13(17),14-pentaene-14-carbonitrile] |  | ≤ 10000 nM |
